From US10829798B2, “DNA-linked enzyme-coupled assays” (THE REGENTS OF THE UNIVERSITY OF CALIFORNIA, priority 2014, dated 2020)

Target: T1, GT06 (UGT89B1 (AT1G73880)) (Arabidopsis thaliana, UniProt Q9C9B0)
T1 sequence (Q9C9B0 1-473): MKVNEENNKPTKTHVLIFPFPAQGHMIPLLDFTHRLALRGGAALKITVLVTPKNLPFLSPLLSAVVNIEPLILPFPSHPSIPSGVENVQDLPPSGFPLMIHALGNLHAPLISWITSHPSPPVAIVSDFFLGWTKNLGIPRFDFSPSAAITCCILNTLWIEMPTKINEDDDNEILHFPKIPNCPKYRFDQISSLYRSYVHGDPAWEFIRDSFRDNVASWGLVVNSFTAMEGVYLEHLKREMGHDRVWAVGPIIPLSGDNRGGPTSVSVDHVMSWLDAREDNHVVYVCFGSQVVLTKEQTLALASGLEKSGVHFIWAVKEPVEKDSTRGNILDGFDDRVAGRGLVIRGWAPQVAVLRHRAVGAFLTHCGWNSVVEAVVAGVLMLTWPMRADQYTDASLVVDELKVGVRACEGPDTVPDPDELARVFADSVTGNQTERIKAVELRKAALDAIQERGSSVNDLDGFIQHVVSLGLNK
Experiment: qPCR DLEnCA, cell-free transcription/translation-derived GT06
Type: biochemical
Conditions: GT06 DNA 5 nM, chemical 1 mM, UDP-Glc 2 μM, probe 0.2 nM; low recovery = substrate glucosylated
Method: FIG. 4A-FIG. 4D. qPCR DLEnCA and substrate specificity studies. A. Chemicals used as substrates in subsequent assays: (i) known substrates of OleD; (ii) flavone library; (iii) known substrates of GT05 (UGT72B1 (Q9M156)) and GT06 (UGT89B1 (AT1 G73880)). B. DNA encoding OleD (5 nM) was incubated in a cell-free transcription/translation system for 3 hours at 37° C., followed by the addition of chemical (1 mM) and UDP-Glc (2 μM). After a subsequent incubation of 3 hours, TbGT and probe (0.2 nM) were added. After probe purification and MfeI digestion, probe integrity was identified using qPCR. Percent recovery of probe is reported (n=8; error bars=standard error). C. DNA encoding OleD (5 nM) was incubated for 3 hours at 37° C. in a cell-free transcription/translation system, followed by the addition of flavone (1 mM) and UDP-Glc (2 μM). After a subsequent incubation of 3 hours, TbGT and probe (0.2 nM) were added. After probe purification and MfeI addition, probe integrity was identified using qPCR. Percent recovery of probe is reported (n=8; error bars=standard error). D. DNA encoding OleD, GT05, or GT06 (5 nM) were incubated for 3 hours at 37° C. in a cell-free transcription/translation system, followed by the addition of chemical (1 mM) and UDP-Glc (2 μM). After a subsequent incubation of 3 hours, TbGT and probe (0.2 nM) were added. […]

O=C(O)c1ccc(O)cc1 [XI, 4-hydroxybenzoic acid]
recovery of probe: 25%
